Holding throughout (assay): NCI-60 cell line screen, 48 h
The subject of assay [1] is ACHN renal.
Assay [2] relates to BT-549 breast.
Assay [3] has as its system DU-145 prostate.
Assay [4] concerns HCC-2998 colon.
Assay [5] relates to HCT-15 colon.
The test system of assay [6] is IGROV1 ovarian.
Assay [7] relates to LOX IMVI melanoma.
Assay [8] deals with M14 melanoma.
Assay [9] relates to MCF7 breast.
Assay [10] has as its system MDA-N.
Assay [11] has as its system NCI-H226 lung.
Assay [12] relates to NCI-H23 lung.
The subject of assay [13] is NCI-H460 lung.
The test system of assay [14] is OVCAR-8 ovarian.
Assay [15] concerns RPMI-8226 leukemia.
Assay [16] concerns SF-268 CNS.
Assay [17] has as its system SK-MEL-5 melanoma.
For assay [18], the system named is T-47D breast.
For assay [19], the system named is TK-10 renal.

SMILES strings stand for the structures.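 Each compound was tested at five concentrations against cells in 96-well plates for 48 hours. TGI marks complete inhibition of growth.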 Where a SMILES comes first, the peptide text is derived from it. [ ]: non-standard residue; d: D form. The star is where a group is joined. ξ: configuration not given here. Propanoyl(3-(4-MeO-Ph)) = COc1ccc(CCC(=O)*)cc1; Thr(3ξ) = CC(O)[C@H](N)C(=O)O; dNMeL = CN[C@H](CC(C)C)C(=O)O; OBn = c1ccc(CO*)cc1; ξLac = CC(O)C(=O)O

TGI data for eleven compounds are collected here from PubChem BioAssay (NCI).

In the case of `O=C(OCC1CCCN2CCCCC12)c1ccncc1` (centres undefined), the TGI in assay [1], in assay [2], in [3], in [4], in [5] and in assay [6] was greater than 100 µM in each case. Besides, the TGI in assay [7], in assay [8], in [9], in assay [10], in [11] and in assay [12] was greater than 100 µM throughout. Further, the TGI in [13], in [14], in [15], in assay [16], in assay [17] and in [18] was greater than 100 µM throughout. The compound also returned a TGI in assay [19] greater than 100 µM.
As to `CCCC#CC(O)(C(=O)OC1CCN(C)CC1)C1CCCCC1` (centres undefined), the TGI in [1], in [2], in assay [3], in assay [4], in [5] and in assay [6] was greater than 100 µM each time. In addition, the TGI in assay [7], in assay [8], in [9], in assay [10], in assay [11] and in assay [12] was greater than 100 µM each time. The TGI in [13], in assay [14], in [15], in assay [16], in [17] and in assay [18] was greater than 100 µM each time. In assay [19], this compound gave a TGI greater than 100 µM.
`Cc1ccc(S(=O)(=O)/N=C(\[O-])C2=C(c3ccccc3)NN(C)c3nc4cccc[n+]4nc32)cc1`: the TGI in assay [1], in [2], in assay [3], in [4], in [5] and in assay [6] was greater than 100 µM in each case. In addition, the TGI in assay [7], in assay [8], in [9], in assay [10], in assay [11] and in [12] was greater than 100 µM throughout. Moreover, the TGI in [13], in assay [14], in assay [15], in [16], in assay [17] and in assay [18] was greater than 100 µM throughout. The same compound came in with a TGI in assay [19] greater than 100 µM.
As to `Nn1c(SCC(=O)NCc2ccccc2)nc2ccccc2c1=O`, the TGI in [1], in assay [2], in [3], in [4], in [5] and in assay [6] was greater than 100 µM each time. Besides, the TGI in assay [7], in assay [8], in [9], in assay [10], in assay [11] and in assay [12] was greater than 100 µM each time. The TGI in assay [13], in [14], in assay [15], in [16], in [17] and in [18] was greater than 100 µM each time. Moreover, in assay [19], the TGI was greater than 100 µM.
`NCCCc1c(-c2ccccc2)nc(N)[nH]c1=O`: the TGI in assay [1], in assay [2], in [3], in assay [4], in [5] and in assay [6] was greater than 100 µM each time. Moreover, the TGI in assay [7], in assay [8], in assay [9], in assay [10], in [11] and in assay [12] was greater than 100 µM throughout. Besides, the TGI in assay [13], in assay [14], in assay [15], in assay [16], in assay [17] and in assay [18] was greater than 100 µM each time. Besides, the TGI in assay [19] was greater than 100 µM.
With `COc1cc(C2SCC(=O)N2c2ccc(Cl)cc2)cc(I)c1O` (centres undefined), the TGI in [1], in assay [2], in [3], in [4], in assay [5] and in [6] was greater than 100 µM in each case. The TGI in assay [7], in assay [8], in assay [9], in [10], in [11] and in [12] was greater than 100 µM throughout. Moreover, the TGI in assay [13], in assay [14], in [15], in assay [16], in [17] and in assay [18] was greater than 100 µM throughout. Moreover, the TGI in assay [19] was greater than 100 µM.
As for `O=c1[nH]c2ccc(CC(=S)N3CCN(c4ccccc4)CC3)cc2o1`, the TGI in assay [1], in assay [2], in assay [3], in [4], in assay [5] and in assay [6] was greater than 100 µM throughout. In addition, the TGI is greater than 100 µM in [7]; greater than 100 µM in [8]; greater than 100 µM in assay [9]; greater than 76.7 µM in assay [10]; greater than 100 µM in assay [11]; greater than 100 µM in [12]. Moreover, the TGI in assay [13], in [14], in [15], in assay [16], in assay [17] and in assay [18] was greater than 100 µM throughout. This compound also returned a TGI in [19] greater than 100 µM.
Consider `COc1ccc(CCC(=O)OC(C)[C@H](NC(=O)[C@@H](CC(C)C)N(C)C(=O)[C@@H]2CCCN2C(=O)C(C)O)C(=O)OCc2ccccc2)cc1` (some centres undefined) (H-[ξLac]P[dNMeL][Thr(3ξ)](Propanoyl(3-(4-MeO-Ph)))-OBn), for which the TGI was greater than 100 µM in [1]; greater than 100 µM in assay [2]; greater than 100 µM in [3]; greater than 100 µM in [4]; greater than 100 µM in assay [5]; 91.9 µM in assay [6]. In addition, the TGI is 41.4 µM in assay [7]; 30.6 µM in [8]; greater than 100 µM in [9]; greater than 100 µM in assay [10]; 98.3 µM in assay [11]; greater than 100 µM in assay [12]. The TGI is greater than 100 µM in [13]; greater than 100 µM in [14]; 80.6 µM in [15]; 99.5 µM in assay [16]; 28.8 µM in assay [17]; 74.5 µM in assay [18]. In assay [19], the TGI is greater than 100 µM.
`O=C(/C=C/c1cccs1)c1cccc(C(=O)/C=C/c2cccs2)n1`: the TGI in assay [1], in assay [2], in [3], in assay [4], in assay [5] and in [6] was greater than 100 µM in each case. The TGI was 7.34 µM in assay [7]; greater than 100 µM in assay [8]; greater than 100 µM in assay [9]; greater than 100 µM in [10]; greater than 100 µM in [11]; greater than 90.6 µM in assay [12]. In addition, the TGI is greater than 100 µM in assay [13]; 19.6 µM in assay [14]; 16 µM in assay [15]; greater than 68.5 µM in assay [16]; greater than 100 µM in [17]; greater than 100 µM in assay [18]. In [19], this compound yielded a TGI greater than 100 µM.
Consider `COc1cc(C(=O)Nc2c3ccccc3nc3ccccc23)cc(OC)c1OC`, for which the TGI in assay [1], in assay [2], in assay [3], in assay [4], in [5] and in assay [6] was greater than 100 µM each time. Besides, the TGI in assay [7], in assay [8], in assay [9], in assay [10], in [11] and in assay [12] was greater than 100 µM each time. Also, the TGI in assay [13] was greater than 100 µM; in assay [14], greater than 100 µM; in assay [15], greater than 100 µM; in assay [16], greater than 82 µM; in [17], greater than 100 µM; in assay [18], greater than 100 µM. This compound also returned a TGI in [19] greater than 100 µM.
Turning to `COC(OC)(c1ccccc1)C(I)I`, the TGI in assay [1] was 31.9 µM; in assay [2], 23.1 µM; in assay [3] it was greater than 67.7 µM; in [4] it was greater than 58.3 µM; in assay [5], 18.5 µM; in [6], 27.4 µM. The TGI in assay [7] amounted to 32.4 µM; in assay [8] it was 15.2 µM; in [9] it was 47.4 µM; in [10], 22.6 µM; in [11], 42.4 µM; in assay [12] it was 50.7 µM. Also, the TGI in assay [13] was 37.7 µM; in assay [14], 35.1 µM; in assay [15], greater than 100 µM; in assay [16], 46.1 µM; in assay [17], 21.9 µM; in [18], 63.1 µM. The TGI in [19] was 26.2 µM.
